This is an account of results in patent US9394539B1, “Survival motor neuron gene (SMN2) mRNA constructs for post-transcription regulation” (PTC Therapeutics, Inc., priority 2007, dated 2016).

Broadly, the CC50 is the concentration at which the toxic effect on the cells reaches its halfway point. Low values mean greater toxicity to the cells, high ones lower toxicity to the cells.

Data set [1] relates to 5′-UTR and 3′-UTR of the target SMN2 mRNA. In words: Luciferase reporter gene screening assay in stable 293H cells (fLuc flanked by SMN2 5′-UTR and 3′-UTR). To be noted: 7.5 μM test concentration, 24 hours, vs negative control (0.5% DMSO). The format is cell-based, human. Here is the method: Stable 293H cell lines containing the firefly luciferase (fLuc) gene flanked by one of SMN1 or SMN2 5′-UTR and 3′-UTR were cultured in DMEM medium supplemented with 10% FBS and 200 ug/mL hygromycin in Fisher T175 flasks. The cells were passaged every 4 days at 1:10 dilution. Cultures are kept in a 37° C. and 5% CO2 incubator. The cells were scaled-up over a three day period before performing the assay. Two confluent T175 flasks were split into twenty T175 flasks (1:10 dilution). Cells were harvested from each confluent flask by removing all of the media and adding 4 mL of warmed trypsin to dislodge the cells. After the cells were dislodged, 16 mL of selective media was added for a final volume of 20 mL. The cells were expanded by adding 2 mL of the harvested cells into ten new T175 flasks plus 25 ml, of selective media. The twenty new flasks are placed into the 37° C., 5% CO2 incubator. On the day the assay was performed, the media was removed from the flasks and 3 mL of warmed trypsin was added to dislodge the cells. After the cells were dislodged, 10 mL of nonselective media was to the flask. This was repeated for all twenty flasks and combined into one flask. 100 μL of the above cell culture plus 100 μL of Trypan Blue stain was counted on a hemocytometer. Cells were plated in the presence of 2 μL of a compound to be tested (at final concentration of 7.5 μM with 0.5% DMSO).
The firefly luciferase substrate used was Luc Lite Plus Packard #6016969. Luciferase activity was immediately assayed using a ViewLux Imaging system (Perkin Elmer).
The screening assay was performed by preparing a plates containing test compounds and controls, including wells that contained only vehicle or a high inhibitor concentration and wells that provided an 8-point dose response curve of puromycin, a non-specific standard control inhibitor. The cells were grown overnight in the presence of compounds or controls at 37° C. in 5% CO2. […] After 24 hours, the amount of luminescence was determined using a ViewLux Imaging system (Perkin Elmer). […]
(In general: In a reporter assay the amount or activity of a reporter protein is the signal.)

Data set [2] in a line: CellTiter-Glo cytotoxicity assay, U937 cells. The format is cell-based. To be noted: human, U937 monocyte cells, relatively sensitive cell line. As for the experimental part: (§1) To evaluate cytotoxicity of the compounds in the neuroblastoma MC-IXC cell line, the CellTiter-Glo assay (Promega) was utilized. CellTiter-Glo determines the number of viable cells in culture based on quantification of the ATP present, which signals the presence of metabolically active cells. A reduction in cellular ATP is indicative of a cytotoxic or cytostatic effect. The compounds are tested in a 7-point dose response from 30 μM to 0.38 μM. Doxorubicin, a known cytotoxic compound, are used to address the sensitivity of the tested cell line. For relatively sensitive cell lines, such as U937 (a human monocyte cell line), the CC50 of doxorubicin ranges from 4 to 10 nM.

A short description of data set [3]: CellTiter-Glo cytotoxicity assay, Huh7 cells. In kind it is cell-based. The note with it: human, Huh7 hepatoblastoma cells, intermediate level of sensitivity. In general terms: ATP-based viability assays read luminescence as a measure of living cells.
A short description of data set [4]: CellTiter-Glo cytotoxicity assay, MC-IXC cells. To be noted: human, MC-IXC neuroblastoma cells, CellTiter-Glo (ATP). In kind it is cell-based. As for the experimental part:
as §1

With `CC(C)(C)C(C)(O)C#Cc1ccccc1` (stereo not drawn) [Cpd 2, 3,4,4-trimethyl-1-phenylpent-1-yn-3-ol], the “Ratio (fold increase in target mRNA (SMN2) compared to negative control)” value in data set [1] is “** (two stars (**) represent active compounds with a fold increase ratio in a range greater than 1.6 up to 1.8)”.

`COc1cccc2c1C(=O)c1c(O)c3c(c(O)c1C2=O)C[C@@](O)(C(=O)CO)C[C@@H]3O[C@H]1C[C@H](N)[C@H](O)[C@H](C)O1` [doxorubicin]: the values for the CC50 in data set [2], in data set [3] and in data set [4] were 4 to 10 nM, 70 to 300 nM and 12 nM, respectively.

Turning to `Cc1ccc2nc(-c3ccc(/N=C/c4ccc(Br)s4)cc3)sc2c1` [Cpd 1, (E)-N-((5-bromothiophen-2-yl)methylene)-4-(6-methylbenzo[d]thiazol-2-yl)aniline], the “Ratio (fold increase in target mRNA (SMN2) compared to negative control)” value in data set [1] is on record as “* (one star (*) represents active compounds with a fold increase ratio in a range greater than 1.3 up to 1.6)”.

As for `c1ccc(-n2ncc3c(NC4CCCCC4)ncnc32)cc1` [Cpd 4, N-cyclohexyl-1-phenyl-1H-pyrazolo[3,4-d]pyrimidin-4-amine], the “Ratio (fold increase in target mRNA (SMN2) compared to negative control)” value in data set [1] was “** (two stars (**) represent active compounds with a fold increase ratio in a range greater than 1.6 up to 1.8)”.
